Test results: patent US7053178B2, “Synthetic peptides and kits for diagnosis of anti-phospholipid syndrome” (Yeda Research Development Co., LTD, priority 1998, dated 2006)
Where no end group is shown, it is not given here.

What was measured:
[1] = tested on: experimental APS induced by anti-β2GPI mAb G-3; assay: Murine experimental APS induced by G-3 mAb; format: in vivo, BALB/c mice; conditions: mice infused with G-3 mAb, peptide 40 μg/mouse daily 3 days, day 15
Procedure: (§1) (i) Mice: Female BALB/c mice, aged 10–12 weeks, were purchased from Tel-Aviv University Animal House, Israel. The females were caged overnight with BALB/c males and examined for vaginal plug next morning. The presence of the plug was considered as day 0 of pregnancy in all the studied groups. (j) Induction of murine experimental APS. Mice were infused intravenously with 20 μg of each one of the anti-β2GPI ILA-1, ILA-3, and G-3 mAbs at day 0 (the day at which a vaginal plug was observed following mating) (Blank et al., 1991), 6 hours later the mice received daily 40 μg/mouse of the tested peptides during 3 days. The mice were bled and sacrificed on day 15 of pregnancy. Fetal resorptions, activated partial thromboplastin time and platelet counts (markers of the APS-equivalent in mice) were determined as described (Blank et al., 1991). Significant fetal loss, thrombocytopenia and prolonged activated thromboplastin time (aPTT) were induced in naive mice following passive intravenous administration of the three anti-β2GPI mAbs ILA-1, ILA-3 and G-3, as described in Materials and Methods, section (j). The clinical manifestations of the experimental APS were prevented by infusion of the specific peptide monomers A, B, C which were delivered to the mice with the corresponding pathogenic anti-β2GPI mAbs, as shown in Table 2. […] Similarly, mice which were preinfused with control IgM and received a cocktail of the peptide monomers (A+B+C), were not affected.

[2] = tested on: anti-β2GPI G-3 mAb; assay: Competition ELISA: inhibition of G-3 mAb binding to β2GPI; set-up: species or system human; conditions: 10 μM peptide concentration
Procedure: (§2) FIGS. 1A–1C are graphs showing inhibition of the anti-β2GPI ILA-1, ILA-3 and G-3 mAbs binding to β2GPI by competition assays using increasing concentrations of the inhibitory monomer peptides A, B and C, respectively, and of unrelated peptide D as control. The percent of inhibition was calculated as follows: % inhibition=O.D control−O.D with inhibitor/O.D control×100. Each point represents mean±SD of three different experiments.
(§3) (e) Inhibition of anti-β2GPI mAb binding to β2GPI by the inhibitory peptides. For competition ELISA tests, the anti-β2GPI mAbs (10 μg/ml) were preincubated (overnight at 4° C.) with varying concentrations of the peptides. The competition reaction was then transferred to β2GPI-coated γ-irradiated ELISA plates (Nunc), and the assay continued as described above. The percentage of inhibition was calculated as follows: % inhibition=O.D control −O.D with inhibitor/O.D control×100.
(§4) (2a) The specificity of interaction of the mAbs with the corresponding synthetic peptides A, B, C and control peptide D as monomers, was assessed by inhibition experiments as described in Materials and Methods, sections (e) and (f).

[3] = tested on: anti-β2GPI G-3 mAb; assay: U937 monocyte adhesion to HUVEC exposed to G-3 mAb; format: cell-based, human; conditions: G-3 mAb preincubated with peptide, 15 μM peptide
Procedure: (§5) FIGS. 3A–3C are graphs showing inhibition of U937 monocyte cell adhesion to HUVEC upon exposure to anti-β2GPI ILA-1, ILA-3 and G-3 mAbs and increasing concentrations of the inhibitory monomer peptides A, B and C, respectively, and of unrelated peptide D as control. The percentage of inhibition of adhesion was calculated as follows: % inhibition of adhesion=CPM in the presence of anti-β2GPI mAb−CPM in the presence of anti-β2GPI mAb and the tested peptide/CPM in the presence of anti-β2GPI mAb×100 (CPM=counts/min). Each point represents mean±SD of three different experiments.
(§6) (g) Adherence of U937 monocyte cells to endothelial cells in the presence of anti-β2GPI mAbs and the inhibitory peptides. This assay was performed as previously described (Carvalho et al., 1996). Briefly, U937 cells (a monocyte/macrophage-like cell line) were pretreated with heat-aggregated gamma-globulin for 30 min at 37° C. […] Radioactivity associated with adherence was quantified by beta-scintillation spectroscopy. The results were expressed as percent of added U937 cells that adhered and are presented as the mean±SD from 3–5 replicate wells.
(§7) The adhesion of monocytes to endothelial cells (EC) is considered a marker of EC activation. The percentage of adhesion is expressed as the portion of added U937 monocyte cells adhering to the HUVEC (thus reflecting the percentage of HUVEC coverage by the monocytes). […]

[4] = tested on: anti-β2GPI ILA-3 mAb; assay: Competition ELISA: inhibition of ILA-3 mAb binding to β2GPI; set-up: species or system human; conditions: 10 μM peptide concentration
Procedure: as §2, §3, §4

[5] = tested on: anti-β2GPI ILA-3 mAb; assay: U937 monocyte adhesion to HUVEC exposed to ILA-3 mAb; format: cell-based, human; conditions: ILA-3 mAb preincubated with peptide, 15 μM peptide
Procedure: as §5, §6, §7

[6] = tested on: experimental APS induced by anti-β2GPI mAb ILA-1; assay: Murine experimental APS induced by ILA-1 mAb; format: in vivo, BALB/c mice; conditions: for aPTT (activated partial thromboplastin time): mice infused i.v. with 20 μg ILA-1 mAb day 0 of pregnancy; for Platelet count / % Fetal loss (Resorbed fetuses/Total fetuses): mice infused with ILA-1 mAb
Procedure: as §1

[7] = tested on: anti-β2GPI ILA-1 mAb; assay: U937 monocyte adhesion to HUVEC exposed to ILA-1 mAb; format: cell-based, human; conditions: ILA-1 mAb preincubated with peptide, 10 μM peptide
Procedure: as §5, §6, §7

[8] = peptide 40 μg/mouse daily 3 days, day 15

CATLRVYKGG [Peptide C]
% Fetal loss (Resorbed fetuses/Total fetuses) [1]: 7 ± 2% | Platelet count [1]: 1242 cells/mm^3 × 10^−3 | aPTT (activated partial thromboplastin time) [1]: 31 ± 4 s | aPTT (activated partial thromboplastin time) ([1]; listed as peptide C): 31 ± 4 s | inhibition of G-3 mAb binding to β2GPI [2]: 98% | inhibition of adhesion of U937 to HUVEC [3]: 92%

KDKATFGTHDG [Peptide B]
inhibition of ILA-3 mAb binding to β2GPI [4]: 77% | inhibition of adhesion of U937 to HUVEC [5]: 95%

NTLKTPRVGG [Peptide A]
aPTT (activated partial thromboplastin time) [6, 8]: 33 ± 4 s | aPTT (activated partial thromboplastin time) ([6]; peptide 40 μg/mouse daily 3 days, day 15, listed as peptide A): 33 ± 4 s | Platelet count [6]: 989±103 cells/mm^3×10^3 | % Fetal loss (Resorbed fetuses/Total fetuses) [6, 8]: 8 ± 2% | Platelet count [6, 8]: 989 | % Fetal loss (Resorbed fetuses/Total fetuses) ([6]; peptide 40 μg/mouse daily 3 days, day 15, listed as peptide monomer A): 8±2% | inhibition of adhesion of U937 to HUVEC [7]: 84%
